# Article PMC4436800 (Frontiers in Neuroscience, 2015)
# Target: T1, Rhopr5HTR2b (R. prolixus serotonin type 2b receptor) (Rhodnius prolixus, UniProt A0A0H4TRR1)
# T1 construct: gene 5HT-R2; complete open reading frame (Genbank KP325472) in pcDNA3.1, transiently expressed in CHOK1-aeq cells
# T1 sequence (A0A0H4TRR1 1-703): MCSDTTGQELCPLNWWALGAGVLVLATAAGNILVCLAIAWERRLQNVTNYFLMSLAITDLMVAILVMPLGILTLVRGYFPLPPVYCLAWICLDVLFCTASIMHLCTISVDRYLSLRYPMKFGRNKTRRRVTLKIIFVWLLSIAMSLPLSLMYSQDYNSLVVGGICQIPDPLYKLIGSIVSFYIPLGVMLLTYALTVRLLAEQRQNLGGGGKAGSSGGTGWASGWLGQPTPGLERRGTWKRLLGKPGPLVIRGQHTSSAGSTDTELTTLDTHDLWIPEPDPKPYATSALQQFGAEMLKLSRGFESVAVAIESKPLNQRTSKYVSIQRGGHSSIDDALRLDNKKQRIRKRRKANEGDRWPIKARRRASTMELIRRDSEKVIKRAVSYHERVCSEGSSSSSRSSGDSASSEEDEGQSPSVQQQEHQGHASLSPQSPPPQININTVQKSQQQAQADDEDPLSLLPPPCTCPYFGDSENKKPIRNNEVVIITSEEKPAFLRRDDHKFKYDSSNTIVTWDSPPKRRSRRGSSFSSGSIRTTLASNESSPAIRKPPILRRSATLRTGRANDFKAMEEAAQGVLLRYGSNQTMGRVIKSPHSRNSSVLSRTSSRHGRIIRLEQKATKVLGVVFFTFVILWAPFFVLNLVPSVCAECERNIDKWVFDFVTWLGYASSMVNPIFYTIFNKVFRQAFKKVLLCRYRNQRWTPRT
# Assay: aequorin luminescence, inhibition of […] serotonin response by […] antagonist
# Assay type: cell-based
row,Structure (SMILES),% inhibition at 10 μM (range for all five antagonists)
1,CN1CCC(=C2c3ccccc3C=Cc3ccccc32)CC1 [cyproheptadine],~ 70–50 % inhibition at 10 μM (range for all five antagonists)
2,O=C(c1ccc(F)cc1)C1CCN(CCn2c(=O)[nH]c3ccccc3c2=O)CC1 [ketanserin],~ 70–50 % inhibition at 10 μM (range for all five antagonists)
3,CN1CCN2c3ccccc3Cc3ccccc3C2C1 (stereo not drawn) [mianserin],~ 70–50 % inhibition at 10 μM (range for all five antagonists)
4,CC(C)NCC(O)COc1cccc2ccccc12 (stereo not drawn) [propranolol],~ 70–50 % inhibition at 10 μM (range for all five antagonists)
5,O=C(CCCN1CCC2(CC1)C(=O)NCN2c1ccccc1)c1ccc(F)cc1 [spiperone],~ 70–50 % inhibition at 10 μM (range for all five antagonists)

# Target: T1, Rhopr5HTR2b (R. prolixus serotonin type 2b receptor)
# Assay: aequorin calcium luminescence assay, agonist dose-response in transfected CHOK1-aeq cells
# Assay type: cell-based
row,Structure (SMILES),EC50 [µM]
1,CC(N)Cc1c[nH]c2ccc(O)cc12 (stereo not drawn) [alpha-methyl serotonin],3.2
